ChEMBL document CHEMBL1201862, “PubChem BioAssay data set” (2004)
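Cells were grown in 96-well plates and exposed to each compound for 48 hours at five concentrations; endpoints were interpolated linearly between bracketing concentrations, or set to the highest concentration if not reached. The concentration for 50% growth inhibition is given as GI50.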 Activity calls are given as the source filed them. Rule as the data show it: active = GI50 up to about 1.1 µM and inactive = higher.

Columns and labels:
Experiment in all cases: DTP human tumour cell line panel, 48 h
[1] = system: SK-MEL-2
[2] = system: NCI-H460
[3] = system: U-251
[4] = system: Hs-578T
[5] = system: A549
[6] = system: Malme-3M
[7] = system: OVCAR-8
[8] = system: HCT-15
[9] = system: DMS-114
[10] = system: NCI/ADR-RES
[11] = system: OVCAR-3
[12] = system: 786-0
[13] = system: MDA-MB-231
[14] = system: HCT-116
[15] = system: ACHN
[16] = system: PC-3
[17] = system: COLO 205
[18] = system: SW-620
[19] = system: RPMI-8226
[20] = system: K562

Measured: GI50

COC(=O)c1ccccc1OCc1cc(=O)oc2ccc(C)cc12
> 100 µM: [8]
inactive: [1] > 42.6 µM | [2] > 100 µM | [3] 14.4 µM | [4] 27.3 µM | [5] 82.2 µM | [6] > 100 µM | [7] 39.3 µM | [9] 89.3 µM | [10] 64.7 µM | [11] 29.4 µM | [12] 39.1 µM | [13] 84.9 µM | [14] 43.1 µM | [15] 63.2 µM | [16] > 100 µM | [17] > 100 µM | [18] > 65.8 µM | [19] > 63.4 µM | [20] > 100 µM

COc1ccccc1/C=C1\CCC(CN(C)C)C1=O (centres undefined)
inactive: [1] 8.51 µM | [2] 19.6 µM | [3] 11.1 µM | [4] 9.86 µM | [5] 20.1 µM | [6] 6.19 µM | [7] 5.78 µM | [9] 2.75 µM | [10] 7.24 µM | [11] 5.38 µM | [12] 2.16 µM | [13] 2.43 µM | [14] 3.48 µM | [15] 8.02 µM | [16] 8.05 µM | [17] 2.25 µM | [18] 2.58 µM | [19] 2.05 µM | [20] 2.28 µM
2.75 µM: [8]

COc1ccccc1/N=N/C(C(=O)c1ccccc1)C(=O)c1ccccc1
14.9 µM: [8]
inactive: [1] 20.7 µM | [2] 19.6 µM | [3] 18.5 µM | [5] 22.4 µM | [6] 25.4 µM | [7] 21.5 µM | [9] 15.2 µM | [11] 22.5 µM | [12] 24.4 µM | [14] 11.5 µM | [15] 21.6 µM | [17] 33.3 µM | [18] 25.1 µM | [19] 12.4 µM | [20] 16.9 µM

CC(=O)O[C@H]1CC[C@@]2(C)C(=C/C(=N\[N+](=O)[O-])[C@H]3C4CCC([C@H](C)CCCC(C)C)[C@@]4(C)CCC32)C1 (some centres undefined)
> 100 µM: [8]
inactive: [1] > 100 µM | [2] > 100 µM | [5] > 100 µM | [6] > 100 µM | [7] > 100 µM | [9] > 100 µM | [11] > 100 µM | [12] > 100 µM | [14] > 100 µM | [15] > 100 µM | [17] > 100 µM | [18] > 100 µM | [19] > 100 µM | [20] > 100 µM

CCOc1ccc(/N=C(/NC(=O)c2ccccc2)SC)cc1
inactive: [1] > 100 µM | [2] > 100 µM | [3] > 100 µM | [5] > 100 µM | [6] > 100 µM | [7] > 100 µM | [9] > 100 µM | [11] > 100 µM | [12] > 100 µM | [14] > 100 µM | [15] > 100 µM | [17] > 100 µM | [18] 43.4 µM | [19] > 100 µM | [20] > 100 µM
> 100 µM: [8]

C#CCN(C(=O)C(F)(F)F)c1ccc(C(=O)c2ccc(N(CC#C)C(=O)C(F)(F)F)cc2)cc1
24.6 µM: [8]
inactive: [1] 33.7 µM | [2] 33.8 µM | [3] 31.6 µM | [5] 84.9 µM | [6] 32.6 µM | [7] 36.1 µM | [9] 20.7 µM | [11] 33.1 µM | [12] 34.1 µM | [14] 34.5 µM | [15] 32.7 µM | [17] 30.8 µM | [18] > 100 µM | [19] 15.6 µM | [20] 21 µM

COc1ccc2c(c1)c1c3n2CCNN=C3CCC1
> 70.1 µM: [8]
inactive: [1] > 100 µM | [2] > 100 µM | [3] > 48.5 µM | [5] > 83.8 µM | [6] > 100 µM | [7] > 81.1 µM | [9] 74.6 µM | [11] > 100 µM | [12] > 100 µM | [14] 99.5 µM | [15] 72.4 µM | [17] > 91 µM | [18] > 100 µM | [19] 29.4 µM | [20] > 81.1 µM
